Reference: article PMC10572602, “Molecular Mechanism of STIL Coiled-Coil Domain Oligomerization” (International Journal of Molecular Sciences, 2023)
Like-named read-outs stand apart in the source and are kept apart here. No end group written: not given here.

Tests used:
[1] = system: STIL CCD peptide; test: AUC sedimentation equilibrium (SE), oligomeric state; assay type: physicochemical; details: absorbance 225 nm, 95% confidence limits; for AUC oligomeric state, SE: starting concentrations 5, 10, 20 µM, single ideal species fit, 20 °C, 25 mM phosphate pH 6.8; for mass, single species model, SE: starting concentrations 20, 10 and 5 µM
Experimental: (§1) To quantify the dissociation constants of the possible monomer-dimer and dimer-tetramer transitions, we used fluorescence-based binding measurements. Using micro-scale thermophoresis, fluorescence measurements were taken at increasing concentrations of WT CCD peptide in a fixed background of 5 µM fluorophore-labelled peptide. […] Fitting the fluorescence data to the Hill equation provided a dissociation constant of 8 ± 2 µM and a cooperativity of 1.2 ± 0.3 (Figure 2B, Table S4). We interpret this as being for the monomer-dimer transition, and that the fluorescence measurements are insensitive to the higher-order oligomerization. […] To probe the possible dimer-tetramer transition, we turned to AUC-SE measurements with starting concentrations of 5, 10, and 20 µM of STIL WT CCD peptide (Figures S18 and S19). The equilibrated data were fitted first to a model for a single ideal species, which provided a species 2.9 × monomer mass (Table 1). […] It should be noted that the dimerization constant of the WT peptide was measured in the presence of 5% DMSO and using a fluorophore-labeled peptide, while the tetramerization constant was measured without DMSO and unlabeled peptides. The addition of the label and the presence of the DMSO, which was unavoidable for making the labeled peptide soluble, may have affected the measured dimerization constant. Thus, we avoid directly comparing the values obtained by the two methods.
(§2) Analytical ultracentrifugation (AUC) experiments were carried out using a Beckman Optima XL-A or XL-I analytical ultracentrifuge. Measurements were performed at 20 °C unless otherwise stated, using an An-50 or An-60 rotor, in Sodium Phosphate Buffer pH 6.8 (25 mM Na2PO4 with addition of 137 mM NaCl, pH measured using Jenway (TM) 3510 benchtop and adjusted using 1M HCl and 1M NaOH solutions). The partial specific volume ( υ¯ ) for each peptide were calculated in Sedfit using values from Cohn and Edsall. The buffer densities and viscosities were calculated using UltraScan III [54].
AUC sedimentation equilibrium (SE) experiments were run at multiple concentrations in a 6-Channel Epon charcoal-filled centerpiece. The samples were centrifuged at a range of speeds between 22–48 krpm. Absorbance scans across the radial range were recorded twice at each speed to ensure equilibration. Data were fitted to single, ideal species models or monomer-dimer equilibrium using Sedphat. In total, 95% confidence limits were obtained via Monte-Carlo analysis of the obtained fits. The quality of the fit was evaluated using the χ^2 parameter to observe which model best fit the data. Both fits of the data, where performed in Figures S18–S23 with their corresponding fit information.

[2] = CD spectroscopy, helicity; assay type: physicochemical; details: CD at 50 µM, 5 °C, 25 mM sodium phosphate pH 6.8, 154 mM NaCl; for % Helicity: from MRE222 (100% = −38)
Excerpt: (§3) Next, we used circular dichroism (CD) spectroscopy to probe the secondary structures of these WT CCD peptide assemblies. […] The spectra all had minima at 208 and 222 nm indicative of largely α-helical structures. From the high-concentration spectra we estimated ≈47% helix. To compare how the stabilities of these helical assemblies changed with concentration, we followed the changes in MRE222 with temperature over the same concentration range (Figure 2D, Table S1). Sigmoidal curves indicative of cooperative unfolding were apparent at all concentrations, indicating a cooperatively folded, oligomeric species. […] The temperature-dependent CD measurements were performed to determine the oligomerization-dependent thermal stability of the CCD. […] CD spectra of the peptides were recorded using a J-810 spectropolarimeter (Jasco) in a 0.1 cm and 1 cm quartz cuvette for far-UV CD spectroscopy, in a spectral range of 190 nm to 260 nm. The buffer used in the CD measurements was 25 mM sodium phosphate buffer pH = 6.8 with ionic strength of 154 mM (adjected by NaCl). The thermal melting of all STIL CCD peptides were measured as described. The graphs were fitted to Boltzmann equation in order to generate the Tm. Normalization to mean residue ellipticity was performed. The 100% helicity was calculated (with normalization to the length of the peptide and the condition of the measurement) as MRE × 10^−3 of −38 (Deg × cm^2 × dmol^−1 × res^−1).

[3] = system: STIL CCD peptide; test: AUC-SE dimer-tetramer model, tetramerization KD; assay type: binding; details: any experimental conditions; KDs could not be measured
Experimental: as §1
as §2, with “[54]. […]” for “[54].”

[4] = system: STIL CCD peptide; test: AUC sedimentation velocity (SV), oligomeric state; assay type: physicochemical; details: for oligomeric state (average number of monomers in the oligomer): continuous c(s), 25 mM sodium phosphate pH 6.8, NaCl
Experimental: Previously, we and others have shown by size-exclusion chromatography and multi-angle light scattering that the oligomerization of a STIL CCD peptide is concentration dependent. However, these studies were qualitative and the interaction was not quantified. To quantify the oligomerisation of the STIL CCD peptide, analytical ultracentrifugation (AUC) sedimentation velocity (SV) and sedimentation equilibrium (SE) experiments were performed (Figure 2A, Table 1 and Figures S4–S9, S18 and S19). AUC-SV experiments were conducted at several concentrations to explore how the oligomeric state changed with concentration in the low-to-high µM concentration range, and also to estimate the dissociation constants of the oligomerization of the STIL CCD peptide.
as §2
Sedimentation velocity (SV) experiments were performed in EPON 2-channel centerpieces with quartz windows or aluminium centrepieces with sapphire windows. The samples were centrifuged at 50 or 60 krpm where stated, with absorbance measurements taken from a radial range of 5.7–7.3 cm. 120 scans were taken at 5 min intervals, the data were fit in Sedfit to a continuous c(s) distribution model at a 95% confidence level. The frictional ration and baseline were floated, and Time-invariant and Radial-invariant noise were fit. Initially data were fit between a range of Svedberg ratio of 0–15, but this was reduced to 0–3 for all data as there were no larger species. The residuals for each individual fit are shown in Figures S14–S17 as a bitmap in which the color indicates the difference between the model fit and the raw data over the radial range to which the data were fitted. The scans are in vertical chronological order.

[5] = assay type: physicochemical; details: for Tm: CD 222 nm, Boltzmann fit
Excerpt: as §3

[6] = biological target: the molecule itself; test: AUC; sedimentation velocity, 100 µM peptide, c(s) distribution; 20 °C, sodium phosphate pH 6.8 with NaCl
[7] = biological target: the molecule itself; test: AUC; sedimentation velocity, 10 µM peptide, c(s) distribution; 20 °C, 25 mM sodium phosphate pH 6.8, ionic strength 154 mM (NaCl)
[8] = biological target: the molecule itself; test: AUC; sedimentation equilibrium, starting concentrations 5, 10 and 20 µM, unlabelled peptide, no DMSO; 20 °C, sodium phosphate pH 6.8 with NaCl; fitted to a single ideal species (N) and, for the WT, to a dimer-tetramer model (apparent KD: tetramer to dimers)
[9] = 10 µM, AUC-SV, 60 krpm, 20 °C, pH 6.8
[10] = 10 µM, AUC-SV, 60 krpm, 20 °C, pH 6.8, 95% confidence level
[11] = 10 µM, AUC-SV, 60 krpm, 20 °C, absorbance, 95% confidence level
[12] = 100 µM, AUC-SV, 60 krpm, 20 °C, pH 6.8
[13] = 100 µM, AUC-SV, 60 krpm, 20 °C, pH 6.8, 95% confidence level
[14] = 100 µM, AUC-SV, 60 krpm, pH 6.8
[15] = 50 µM, 25 mM sodium phosphate pH 6.8, 154 mM NaCl
[16] = 10 µM in legend of Figure S17 (second fit), 60 krpm

| Molecule | AUC oligomeric state, SE [1] | mass, single species model, SE [1] [Da] | MRE222 nm [2] [kdeg cm^2 dmol^−1 res^−1] | % Helicity [2] [%] | dissociation of tetramer (in words) [3] | Oligomeric State (at 10 µM) ([4]; 10 µM) | sw [4, 9] [S] | mw (solution mass from c(s) fit) [4, 10] [Da] | f/f0 ([4]; 10 µM, AUC-SV, 60 krpm, pH 6.8) | sw(20,w) ([4]; 10 µM, AUC-SV, 60 krpm, pH 6.8) [S] | oligomeric state (average number of monomers in the oligomer) [4, 11] [× monomer mass] | sw [4, 12] [S] | mw (solution mass from c(s) fit) [4, 13] [Da] | f/f0 [4, 14] | sw(20,w) [4, 14] [S] | Tm [5, 15] [°C] | stoichiometry N [6] | stoichiometry N [7] | stoichiometry N [8] | other results |
| --- | --- | --- | --- | --- | --- | --- | --- | --- | --- | --- | --- | --- | --- | --- | --- | --- | --- | --- | --- | --- |
| L SPDAYRF LTELDRQ LRLLQAQ IQRLLEA QSL-NH2 [STIL CCD718–749 Q729L, STIL CCD peptide with stabilising Q729L mutation; PDB 8oyl] | 3.47 ± 0.05 (5, 10, 20 µM) × monomer mass | 13373 ± 200 | −25.3 | 67 | could not be dissociated under any experimental conditions | Tetramer | 1.484 | 13538 | 1.250 | 1.531 | 3.56 | 1.573 | 15867 | 1.323 | 1.622 | >95 | – | – | – | oligomeric state (average number of monomers in the oligomer) ([4]; 100 µM, AUC-SV, 60 krpm, 20 °C, 95% confidence level, listed as STIL-Q729L): 4.1 × monomer mass |
| L SPDLYRF LTELDRQ LRLLQAQ IQRLLEA QSL-NH2 [STIL CCD718–749 A722L Q729L, STIL CCD peptide, double mutant of A722L and Q729L] | 3.24 ± 0.03 (5, 10, 20 µM) × monomer mass | 12446 ± 129 | −30.7 | 81 | could not be dissociated under any experimental conditions | Tetramer | 1.452 | 16229 | 1.411 | 1.499 | 4.22 | – | – | – | – | >95 | – | – | – | f/f0 [4, 16]: 1.390; sw [4, 16]: 1.483 S; sw(20,w) [4, 16]: 1.530 S; mw (solution mass from c(s) fit) ([4]; 10 µM in legend of Figure S17 (second fit), 60 krpm, 95% confidence level): 16134 Da; oligomeric state (multiple of monomer mass) ([4]; 10 µM in legend of Figure S17 (second fit), AUC-SV, 60 krpm, 95% confidence level): 4.2 × monomer mass; oligomeric state (average number of monomers in the oligomer) ([4]; 10 µM, AUC-SV, 60 krpm, 20 °C, absorbance, 95% confidence level, listed as STIL-A722L-Q729L): 4.2 × monomer mass |
| L SPDLYRF LTEQDRQ LRLLQAQ IQRLLEA QSL-NH2 [STIL CCD718–749 A722L, STIL CCD peptide with A722L mutation] | 3.51 ± 0.02 (5, 10, 20 µM) × monomer mass | 13541 ± 94 | −24.9 | 66 | could not be dissociated under any experimental conditions | Tetramer | 1.384 | 15133 | 1.458 | 1.428 | 3.92 | 1.483 | 15385 | 1.403 | 1.514 | >70 | – | – | – | oligomeric state (average number of monomers in the oligomer) ([4]; 100 µM, AUC-SV, 60 krpm, 20 °C, 95% confidence level, listed as STIL-A722L): 4.0 × monomer mass; Tm ([5]; 3 µM, sodium phosphate pH 6.8): 48.0±0.7 °C; Tm ([5]; 5 µM, sodium phosphate pH 6.8): 52.9±0.9 °C; Tm ([5]; 6 µM, sodium phosphate pH 6.8): 53.6±0.6 °C; Tm ([5]; 10 µM, sodium phosphate pH 6.8): 59.1±0.8 °C; Tm ([5]; 15 µM, sodium phosphate pH 6.8): 63±1 °C; Tm ([5]; 20 µM, sodium phosphate pH 6.8): 68±2 °C; Tm ([5]; 50 µM, 25 mM sodium phosphate pH 6.8, 154 mM NaCl, listed as A722L): over 70 °C; thermal denaturation (in words) ([5]; 50 µM, CD, 25 mM sodium phosphate pH 6.8, 154 mM NaCl): partially denatured; concentration dependence of Tm / thermal stability (in words) ([5]; pH 6.8): the thermal stability of A722L increased with peptide concentration |
| LSPDLYRFLTEQDRQLRLLQAQIQRLLEAQSL-NH2 (STIL coiled-coil domain, residues 718-749, with A722L; source: synthetic peptide (Fmoc-SPPS on rink amide, RP-HPLC purified)) [STIL CCD_(718–749) A722L] | – | – | – | – | – | – | – | – | – | – | – | – | – | – | – | – | 4 | 3.92 | 3.51 ± 0.02 | – |
| LSPDLYRFLTELDRQLRLLQAQIQRLLEAQSL-NH2 (STIL coiled-coil domain, residues 718-749, with A722L and Q729L; also called double mutant; source: synthetic peptide (Fmoc-SPPS on rink amide, RP-HPLC purified)) [STIL CCD_(718–749) A722L Q729L] | – | – | – | – | – | – | – | – | – | – | – | – | – | – | – | – | 4 | 4.22 | 3.24 ± 0.03 | – |
| LSPDAYRFLTELDRQLRLLQAQIQRLLEAQSL-NH2 (STIL coiled-coil domain, residues 718-749, with Q729L; also called STIL CCD Q729L; source: synthetic peptide (Fmoc-SPPS on rink amide, RP-HPLC purified)) [STIL CCD_(718–749) Q729L] | – | – | – | – | – | – | – | – | – | – | – | – | – | – | – | – | 4 | 3.56 | 3.47 ± 0.05 | – |
